Source: PubChem BioAssay AID330 (DTP/NCI, 2004)
Inconclusive results and toxic doses are left out.

Test system: P388 leukemia ip, CD2F1 mice, survival T/C
Assay: NCI In Vivo Anticancer Drug Screen. Data for tumor model P388 Leukemia (intraperitoneal) in CD2F1 (CDF1) mice
Conditions: endpoint: median survival time, higher = longer survival
Summary of the method: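 Mice carrying the transplanted tumor received test compound or vehicle. Survival was recorded in each group, and the value is the treated-group measurement divided by that of the vehicle-treated control group.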

[1] = dose: 50.0 mg/kg/injection, schedule: Q01DX005 (ip), vehicle: Klucel (hydroxypropylcellulose) (HPC)
[2] = dose: 100.0 mg/kg/injection, schedule: Q01DX005 (ip), vehicle: Klucel (hydroxypropylcellulose) (HPC)
[3] = dose: 200.0 mg/kg/injection, schedule: Q01DX005 (ip), vehicle: Klucel (hydroxypropylcellulose) (HPC)

`Cc1ccc(NC(=O)C(C)C)cc1` was tested, and the T/C (dose: 100.0 mg/kg/injection, schedule: Q04DX003 (ip), vehicle: Klucel (hydroxypropylcellulose) (HPC)) was 100 % of control, the T/C (dose: 200.0 mg/kg/injection, schedule: Q04DX003 (ip), vehicle: Klucel (hydroxypropylcellulose) (HPC)) was 101 % of control and the T/C (dose: 400.0 mg/kg/injection, schedule: Q04DX003 (ip), vehicle: Klucel (hydroxypropylcellulose) (HPC)) was 109 % of control.
With `CN1CCN(C(=O)N2CCCc3ccccc32)CC1` the T/C (dose: 100.0 mg/kg/injection, schedule: Q04DX003 (ip), vehicle: saline) was 101 % of control and the T/C (dose: 200.0 mg/kg/injection, schedule: Q04DX003 (ip), vehicle: saline) was 99 % of control.
With `C[C@@H]1CN(c2ccccc2)C[C@H](C)OS(=O)O1` (stereo partly specified) the T/C (dose: 50.0 mg/kg/injection, schedule: Q01DX001 (ip), vehicle: Klucel (hydroxypropylcellulose) (HPC)) was 105 % of control, the T/C [1] was 96 % of control and the T/C (dose: 100.0 mg/kg/injection, schedule: Q01DX001 (ip), vehicle: Klucel (hydroxypropylcellulose) (HPC)) was 103 % of control. The T/C [2] was 100 % of control, the T/C (dose: 200.0 mg/kg/injection, schedule: Q01DX001 (ip), vehicle: Klucel (hydroxypropylcellulose) (HPC)) was 97 % of control and the T/C [3] was 93 % of control.
In the case of `O=C(Cc1nc2ccccc2[nH]1)N/N=C1\SCC(=O)N1c1ccc(Cl)cc1`, the T/C [1] is reported as 103 % of control, the T/C [2] is reported as 108 % of control and the T/C [3] is reported as 104 % of control.
With `CCN(CCCl)/N=N/c1nc2c([nH]1)c(=O)n(C)c(=O)n2C` the T/C (dose: 50.0 mg/kg/injection, schedule: Q01DX005 (ip), vehicle: saline) was 100 % of control, the T/C (dose: 100.0 mg/kg/injection, schedule: Q01DX005 (ip), vehicle: saline) was 105 % of control and the T/C (dose: 200.0 mg/kg/injection, schedule: Q01DX005 (ip), vehicle: saline) was 109 % of control.
With `O=C(c1ccccc1)[C@@]12COc3ccccc3[C@@H]1ON=C2c1ccccc1` the T/C [1] was 89 % of control, the T/C [2] was 88 % of control and the T/C [3] was 91 % of control.
In the case of `COC1=C(N2CC2)C(=O)C(OC)=C(N2CC2)C1=O`, the T/C (dose: 4.0 mg/kg/injection, schedule: Q04DX003 (ip), vehicle: saline with Tween-80) is reported as 159 % of control.
`CCOC(=O)CS(=O)(=O)CCCCCCCCCCS(=O)(=O)CC(=O)OCC` was tested, and the T/C (dose: 50.0 mg/kg/injection, schedule: Q01DX009 (ip), vehicle: saline) was 102 % of control, the T/C (dose: 100.0 mg/kg/injection, schedule: Q01DX009 (ip), vehicle: saline) was 99 % of control and the T/C (dose: 200.0 mg/kg/injection, schedule: Q01DX009 (ip), vehicle: saline) was 89 % of control.
For `CC1(C)CC[P+](CC[P+]2(c3ccccc3)CCC(C)(C)c3ccccc32)(c2ccccc2)c2ccccc21` (stereo unspecified), the T/C (dose: 0.75 mg/kg/injection, schedule: Q01DX005 (ip), vehicle: saline) was 103 % of control, the T/C (dose: 1.5 mg/kg/injection, schedule: Q01DX005 (ip), vehicle: saline) was 101 % of control and the T/C (dose: 3.0 mg/kg/injection, schedule: Q01DX005 (ip), vehicle: saline) was 103 % of control. For the same compound, the T/C (dose: 3.12 mg/kg/injection, schedule: Q01DX005 (ip), vehicle: suspension in saline) was 89 % of control, the T/C (dose: 12.5 mg/kg/injection, schedule: Q01DX005 (ip), vehicle: saline with Tween-80) was 100 % of control and the T/C (dose: 25.0 mg/kg/injection, schedule: Q01DX005 (ip), vehicle: saline with Tween-80) was 100 % of control. The T/C (dose: 50.0 mg/kg/injection, schedule: Q01DX005 (ip), vehicle: saline with Tween-80) was 102 % of control.
In the case of `c1ccc2c(c1)Oc1cccc3cccc-2c13`, the T/C [1] is reported as 97 % of control, the T/C [2] is reported as 101 % of control and the T/C [3] is reported as 101 % of control.
With `C=CC(C(=O)O)S(=O)(=O)O` (stereo unspecified) the T/C (dose: 20.0 mg/kg/injection, schedule: Q01DX009 (ip), vehicle: saline with Tween-80) was 112 % of control and the T/C (dose: 40.0 mg/kg/injection, schedule: Q01DX009 (ip), vehicle: saline with Tween-80) was 103 % of control.
In the case of `COC(=O)c1ccc(SCCC(=O)CNc2nc(N)nc(N)c2[N+](=O)[O-])cc1`, the T/C (dose: 50.0 mg/kg/injection, schedule: Q01DX009 (ip), vehicle: Klucel (hydroxypropylcellulose) (HPC)) is reported as 96 % of control, the T/C (dose: 100.0 mg/kg/injection, schedule: Q01DX009 (ip), vehicle: Klucel (hydroxypropylcellulose) (HPC)) is reported as 93 % of control and the T/C (dose: 200.0 mg/kg/injection, schedule: Q01DX009 (ip), vehicle: Klucel (hydroxypropylcellulose) (HPC)) is reported as 96 % of control.
In the case of `COC(=O)c1nc(=S)[nH]c(C(=O)OC)c1C(=O)c1ccc(O)c(OC)c1`, the T/C (dose: 60.0 mg/kg/injection, schedule: Q01DX005 (ip), vehicle: Klucel (hydroxypropylcellulose) (HPC)) is reported as 104 % of control and the T/C (dose: 120.0 mg/kg/injection, schedule: Q01DX005 (ip), vehicle: Klucel (hydroxypropylcellulose) (HPC)) is reported as 90 % of control.
